Experiment: binding affinity against sigma Opioid receptor was measured by using labeled ligand [3H]-SKF- 10,047 (1 nM)
For `O=C1CC[C@@H]2CN(CC3CC3)CC[C@@]23c2cccc(O)c2O[C@@H]13` [(4aS,7aR,12bS)-3-Cyclopropylmethyl-9-hydroxy-2,3,4,4a,5,6-hexahydro-1H-8-oxa-3-aza-benzo[d]fluoren-7-one], the Ki was 310 nM. In the case of `Oc1cccc2c1O[C@H]1[C@H](O)CC[C@@H]3CN(CC4CC4)CC[C@@]231` [(4aS,7R,7aR,12bS)-3-Cyclopropylmethyl-2,3,4,4a,5,6,7,7a-octahydro-1H-8-oxa-3-aza-benzo[d]fluorene-7,9-diol], the Ki is reported as 300 nM. Work on `O=C1CC[C@H]2CN(CC3CC3)CC[C@@]23c2cccc(O)c2O[C@@H]13` [(4aR,7aR,12bS)-3-Cyclopropylmethyl-9-hydroxy-2,3,4,4a,5,6-hexahydro-1H-8-oxa-3-aza-benzo[d]fluoren-7-one] yielded a Ki of 710 nM. With `Oc1cccc2c1O[C@H]1CCC[C@H]3CN(CC4CC4)CC[C@@]231` [(-)-trans-3-Cyclopropylmethyl-2,3,4,4aalpha,5,6,7,7aalpha-octahydro-1H-benzo[4,5]furo[3,2-e]isoquinolin-9-ol] the Ki was 21 nM. Compound `Oc1cccc2c1O[C@H]1[C@@H](O)CC[C@H]3CN(CC4CC4)CC[C@@]231` [(4aR,7S,7aR,12bS)-3-Cyclopropylmethyl-2,3,4,4a,5,6,7,7a-octahydro-1H-8-oxa-3-aza-benzo[d]fluorene-7,9-diol] has a Ki of 580 nM. `COc1cccc2c1O[C@H]1[C@@H](O)CC[C@H]3CN(CC4CC4)CC[C@@]231` [(4aR,7S,7aR,12bS)-3-Cyclopropylmethyl-9-methoxy-2,3,4,4a,5,6,7,7a-octahydro-1H-8-oxa-3-aza-benzo[d]fluoren-7-ol] showed a Ki of 410 nM. Work on `COc1cccc2c1O[C@H]1C(=O)CC[C@H]3CN(CC4CC4)CC[C@@]231` [(4aR,7aR,12bS)-3-Cyclopropylmethyl-9-methoxy-2,3,4,4a,5,6-hexahydro-1H-8-oxa-3-aza-benzo[d]fluoren-7-one] yielded a Ki of 440 nM. In the case of `CN1CC[C@]23c4cccc(O)c4O[C@H]2C(=O)CC[C@H]3C1` [(4aR,7aR,12bS)-9-Hydroxy-3-methyl-2,3,4,4a,5,6-hexahydro-1H-8-oxa-3-aza-benzo[d]fluoren-7-one], the Ki is reported as 2090 nM.

Reference: BindingDB's records for doi:10.1021/jm00045a017 (National Taiwan University, 1994)
